The conditions of the series: Liquid, Closed cell (Static) method.

± gives the expanded uncertainty stated by the source.

The vapor or sublimation pressure is the equilibrium pressure above the liquid or solid.

For the compound `CCCCCCCCCCCC` [dodecane], the “vapor or sublimation pressure” value is, setting by setting: (342.18 K) 0.36 ± 0.1 kPa; (352.68 K) 0.75 ± 0.1 kPa.

For `O` [water], the “vapor or sublimation pressure” value (313.17 K) is 7.36 ± 0.14 kPa, the “vapor or sublimation pressure” value (323.18 K) is listed as 12.18 ± 0.19 kPa and the “vapor or sublimation pressure” value (342.83 K) was determined as 30.65 ± 0.22 kPa.

Turning to `CCCCCC` [hexane], the “vapor or sublimation pressure” value (329.22 K) is listed as 65.63 ± 0.67 kPa.

Turning to `CCC(C)O` (stereo not drawn) [butan-2-ol], the “vapor or sublimation pressure” value runs as follows: (323.18 K) 10.74 ± 0.16 kPa; (329.22 K) 14.55 ± 0.21 kPa; (342.83 K) 28.43 ± 0.28 kPa; (352.68 K) 44.66 ± 0.35 kPa.

Take `CCCO` [propan-1-ol]: the “vapor or sublimation pressure” value amounted to 6.99 ± 0.19 kPa (313.17 K), 31.45 ± 0.24 kPa (342.83 K) and 49.8 ± 0.4 kPa (352.68 K).
